IC50 and DC50 data for 1 compound are collected here from US11518759B1, “Protacs based on VHL ligand targeting coronavirus 3CL protease and preparation method and application thereof” (SHAANXI PANLONG PHARMACEUTICAL CO., LTD., priority 2022, dated 2022).

pIC50: −log10 of the molar value. Like-named read-outs stand apart in the source and are kept apart here.

Test [1] has as its target T1, SARS-CoV-2 3CL^pro (Severe acute respiratory syndrome coronavirus 2 (2019-nCoV) (SARS-CoV-2), UniProt P0DTD1). Nature of the test: biochemical. Particulars: FRET.
Test [2] has as its target T1, SARS-CoV-2 3CL^pro. The format is cell-based. As to conditions: 24 h, Western Blot. For orientation: In western blotting, separated proteins are transferred to a membrane and probed.

As for `Cc1ncsc1-c1ccc(CNC(=O)[C@@H]2C[C@@H](O)CN2C(=O)[C@@H](NC(=O)COCCOCCn2cc(Cn3c(=O)[nH]/c(=N\c4cc5cn(C)nc5cc4Cl)n(Cc4cc(F)c(F)cc4F)c3=O)nn2)C(C)(C)C)cc1` [Compound 8], the pIC50 (as a rule, the negative decadic logarithm of the IC50, by convention in mol/L) is greater than 7.00 on SARS-CoV-2 3CL^pro [1] (SARS-CoV-2 3CLpro 0.5 μM, substrate 20 μM, class symbols, read-out: IC50) and greater than 7.00 at SARS-CoV-2 3CL^pro [1] (bound stated, read-out: IC50 values on 3CL^pro). The DC50 was less than 0.1 µM at SARS-CoV-2 3CL^pro [2] (HEK293E cells transfected with 3CLpro plasmid, class symbols) and less than 0.1 µM on SARS-CoV-2 3CL^pro [2] (read-out: DC50 values for 3CL^pro, HEK293E cells, bound stated).
